Measured values: paper PMC12518634, “The noncanonical function of liver-type phosphofructokinase potentiates the efficacy of HDAC inhibitors in cancer” (Signal Transduction and Targeted Therapy, 2025)

What was measured:
TFK1 cells [1] = experiment: Cell viability assay (CellTiter-Glo, 72 h), GI50; assay type: cell-based, human; conditions: Homo sapiens
Procedure: (§1) Cell viability was assessed using the CellTiter-Glo luminescent cell viability assay (Vazyme, DD1101) following the manufacturer’s instructions. Briefly, 5000 cells per well were seeded into a 96-well white bottom permeable plate. Different concentrations of drugs were added to each well. After 72 h of treatment, a mixture of CellTier reagent and serum-free culture medium was prepared at a 1:1 ratio, and 100 μL of the mixture was added to each well. After incubation at 37 °C for 15 min, the luminescence was measured using a microplate reader (Synergy H1, Biotek). All the experiments were conducted in triplicate. Cell viability (relative luminescence) was defined as the luminescence of the drug treatment relative to that of the vehicle control.

A549 cells = experiment: Cell viability assay (CellTiter-Glo, 72 h), GI50; assay type: cell-based; conditions: Homo sapiens, A549, 72 h
Procedure: as §1

BT-549 cells = experiment: Cell viability assay (CellTiter-Glo, 72 h), GI50; assay type: cell-based; conditions: Homo sapiens, BT-549, 72 h
Procedure: as §1

MCF7 cells = experiment: Cell viability assay (CellTiter-Glo, 72 h), GI50; assay type: cell-based; conditions: Homo sapiens, Fig. 6a
Procedure: as §1

NCI-H596 cells = experiment: Cell viability assay (CellTiter-Glo, 72 h), GI50; assay type: cell-based; conditions: Homo sapiens, Fig. 6a
Procedure: as §1

RMG-I cells = experiment: Cell viability assay (CellTiter-Glo, 72 h), GI50; assay type: cell-based; conditions: Homo sapiens
Procedure: as §1

TOV21G cells = experiment: Cell viability assay (CellTiter-Glo, 72 h), GI50; assay type: cell-based; conditions: Homo sapiens, Fig. 6a
Procedure: as §1

[2] = system: H3K9ac and H3K27ac in TFK1 cells; experiment: Immunoblot of H3K9ac and H3K27ac; assay type: cell-based, human; conditions: prolonged romidepsin treatment, n = 3 biological replicates, Fig. 3f
Procedure: For immunoblotting, cells were washed with ice-cold PBS and lysed in RIPA lysis buffer (supplemented with protease inhibitor and phosphatase inhibitor cocktails Ⅱ and Ⅲ) for 15 min at 4 °C. The protein concentrations of the samples were normalized using a BCA protein assay kit (Thermo). Immunoblots were performed with specific primary antibodies, followed by the addition of a fluorescein-conjugated secondary antibody, after which the proteins were detected via an Odyssey fluorescence scanner (LI-COR).

TFK1 cells [3] = conditions: PFKL-knockout (sgPFKL) TFK1 cells and PFKL-overexpressing (ovPFKL) HuCCT1 cells; LC-MS/MS of cell lysates; n=3 biological replicates; Supplementary Fig. 5f
[4] = romidepsin combined with NS or peptide, Fig. 6c

SMILES: Cc1[nH]c2ccccc2c1CCNCc1ccc(/C=C/C(=O)NO)cc1 [Panobinostat, panobinostat]
- GI50 (TFK1 cells [1]; TFK1, CellTiter-Glo, Fig. 1b): 62.7 nM
- GI50 (TFK1 cells [1]; TFK1 after interference with LHCGR si-1, Fig. 1f): 31 nM
- GI50 (TFK1 cells [1]; TFK1 after interference with LHCGR si-2, Fig. 1f): 28.3 nM
- GI50 (TFK1 cells [1]; TFK1 after interference with NFIA si-1, Fig. 1f): 42.7 nM
- GI50 (TFK1 cells [1]; TFK1 after interference with NFIA si-2, Fig. 1f): 46.6 nM
- GI50 (TFK1 cells [1]; TFK1 after interference with PFKFB1 si-1, Fig. 1f): 45.1 nM
- GI50 (TFK1 cells [1]; TFK1 after interference with PFKFB1 si-2, Fig. 1f): 60.6 nM
- GI50 (TFK1 cells [1]; TFK1 after interference with PFKL si-1, Fig. 1f): 605 nM
- GI50 (TFK1 cells [1]; TFK1 after interference with PFKL si-2, Fig. 1f): 402 nM
- GI50 (TFK1 cells [1]; TFK1 expressing sgNC, Fig. 1g): 53.9 nM
- GI50 (TFK1 cells [1]; TFK1 expressing sgPFKL-1, Fig. 1g): 964 nM
- GI50 (TFK1 cells [1]; TFK1 expressing sgPFKL-2, Fig. 1g): 644 nM
- GI50 (TFK1 cells [1]; TFK1 siNC, Fig. 1f): 40.1 nM

SMILES: C/C=C1\NC(=O)[C@H]2CSSCC/C=C/[C@H](CC(=O)N[C@H](C(C)C)C(=O)N2)OC(=O)[C@H](C(C)C)NC1=O [Romidepsin, romidepsin]
- GI50 (A549 cells; Fig. 6a): 5.87 nM
- GI50 (A549 cells; [4]): 7.62 nM
- GI50 (BT-549 cells; BT549, romidepsin combined with NS or peptide, Fig. 6c): 16.2 nM
- GI50 (BT-549 cells; BT-549, Fig. 6a): 13.7 nM
- GI50 (MCF7 cells): 0.56 nM
- GI50 (NCI-H596 cells): 0.12 nM
- GI50 (RMG-I cells; Fig. 6a): 5.71 nM
- GI50 (RMG-I cells; [4]): 9.48 nM
- GI50 (TOV21G cells): 0.36 nM
- acetylation at the H3K9 and K27 histone sites [2]: gradual increase in acetylation
- cellular uptake of romidepsin with differential expression of PFKL (TFK1 cells [3]): did not affect the cellular uptake
